Each block holds one compound with its values, some of them ahead of it.
What was measured:
[1] = biological target: T1, hM4 (Homo sapiens, UniProt P08173); experiment: calcium mobilization assay, hM4/Gqi5 CHO cells, ACh EC80; type: cell-based; settings: for hM4 % ACh Min ±SEM: presence of ACh EC80
T1 sequence (P08173 1-479): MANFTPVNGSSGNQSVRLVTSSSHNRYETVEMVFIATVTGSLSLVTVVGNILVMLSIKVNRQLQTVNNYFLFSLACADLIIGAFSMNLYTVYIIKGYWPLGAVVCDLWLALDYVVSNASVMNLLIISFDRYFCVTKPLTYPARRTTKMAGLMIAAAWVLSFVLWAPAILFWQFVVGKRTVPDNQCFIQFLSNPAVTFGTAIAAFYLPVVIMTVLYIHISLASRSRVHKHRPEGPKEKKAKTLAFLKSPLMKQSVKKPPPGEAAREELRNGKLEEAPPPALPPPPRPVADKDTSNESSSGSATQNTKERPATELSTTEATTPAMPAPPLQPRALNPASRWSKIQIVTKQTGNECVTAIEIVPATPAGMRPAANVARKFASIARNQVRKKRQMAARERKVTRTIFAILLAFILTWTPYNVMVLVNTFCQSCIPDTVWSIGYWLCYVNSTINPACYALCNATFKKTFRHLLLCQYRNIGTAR

[2] = predicted hepatic clearance from microsomal intrinsic clearance, rat; type: in vitro ADME; settings: based on microsomal CLint
[3] = predicted hepatic clearance from microsomal intrinsic clearance, human; type: in vitro ADME; settings: based on microsomal CLint
[4] = metabolite identification in rat hepatic microsomes; type: in vitro ADME
[5] = metabolite identification in human hepatic microsomes; type: in vitro ADME
[6] = plasma protein binding; type: in vitro ADME
[7] = biological target: T2, hM1 (Homo sapiens, UniProt P11229); experiment: calcium mobilization assay, hM1 CHO cells, ACh EC80; type: cell-based
T2 sequence (P11229 1-460): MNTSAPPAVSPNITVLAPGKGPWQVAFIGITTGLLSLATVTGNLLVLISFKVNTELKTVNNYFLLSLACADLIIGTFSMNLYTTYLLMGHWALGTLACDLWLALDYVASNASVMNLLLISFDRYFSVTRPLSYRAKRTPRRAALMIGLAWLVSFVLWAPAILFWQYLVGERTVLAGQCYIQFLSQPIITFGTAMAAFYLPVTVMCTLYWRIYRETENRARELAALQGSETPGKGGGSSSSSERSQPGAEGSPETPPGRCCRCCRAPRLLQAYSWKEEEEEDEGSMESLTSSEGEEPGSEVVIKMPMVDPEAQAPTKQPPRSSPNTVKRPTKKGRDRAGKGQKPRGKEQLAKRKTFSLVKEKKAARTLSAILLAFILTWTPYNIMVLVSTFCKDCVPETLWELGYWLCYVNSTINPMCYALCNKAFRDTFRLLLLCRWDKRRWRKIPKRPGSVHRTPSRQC

[8] = biological target: T3, hM2 (Homo sapiens, UniProt P08172); experiment: calcium mobilization assay, hM2/Gqi5 CHO cells, ACh EC80; type: cell-based
T3 sequence (P08172 1-466): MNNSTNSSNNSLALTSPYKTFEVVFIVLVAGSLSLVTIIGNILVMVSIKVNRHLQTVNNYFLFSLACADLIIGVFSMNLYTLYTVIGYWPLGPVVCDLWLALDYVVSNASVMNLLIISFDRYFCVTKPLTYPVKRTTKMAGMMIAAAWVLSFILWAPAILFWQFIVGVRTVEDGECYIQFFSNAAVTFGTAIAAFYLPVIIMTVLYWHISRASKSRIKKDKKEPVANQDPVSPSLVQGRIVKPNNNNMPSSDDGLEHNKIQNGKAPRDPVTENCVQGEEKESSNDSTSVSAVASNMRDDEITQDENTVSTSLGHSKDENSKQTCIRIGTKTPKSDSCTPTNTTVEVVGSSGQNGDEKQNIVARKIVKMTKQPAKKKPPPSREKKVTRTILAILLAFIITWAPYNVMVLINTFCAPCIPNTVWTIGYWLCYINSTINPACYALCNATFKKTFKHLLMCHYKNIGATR

[9] = biological target: hM3 (Homo sapiens, UniProt P20309); experiment: calcium mobilization assay, hM3 CHO cells, ACh EC80; type: cell-based
Sequence of hM3 (P20309 whole entry): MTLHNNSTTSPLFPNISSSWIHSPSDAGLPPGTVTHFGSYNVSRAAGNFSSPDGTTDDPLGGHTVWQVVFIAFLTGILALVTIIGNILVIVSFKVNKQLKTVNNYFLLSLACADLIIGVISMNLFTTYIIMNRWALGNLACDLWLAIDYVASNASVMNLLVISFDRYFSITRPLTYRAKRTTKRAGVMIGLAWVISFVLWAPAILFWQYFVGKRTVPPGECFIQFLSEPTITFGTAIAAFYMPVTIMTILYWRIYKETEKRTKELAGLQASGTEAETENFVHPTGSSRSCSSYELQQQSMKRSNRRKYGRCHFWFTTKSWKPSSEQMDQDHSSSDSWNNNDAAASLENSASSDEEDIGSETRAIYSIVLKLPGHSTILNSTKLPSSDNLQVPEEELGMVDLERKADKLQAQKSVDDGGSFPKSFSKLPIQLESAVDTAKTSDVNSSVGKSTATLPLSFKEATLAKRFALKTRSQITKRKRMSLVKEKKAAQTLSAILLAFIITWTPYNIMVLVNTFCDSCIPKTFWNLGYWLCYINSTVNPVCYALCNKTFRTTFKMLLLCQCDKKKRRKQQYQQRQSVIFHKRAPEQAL

[10] = biological target: T4, hM5 (Homo sapiens, UniProt P08912); experiment: calcium mobilization assay, hM5 CHO cells, ACh EC80; type: cell-based
T4 sequence (P08912 1-532): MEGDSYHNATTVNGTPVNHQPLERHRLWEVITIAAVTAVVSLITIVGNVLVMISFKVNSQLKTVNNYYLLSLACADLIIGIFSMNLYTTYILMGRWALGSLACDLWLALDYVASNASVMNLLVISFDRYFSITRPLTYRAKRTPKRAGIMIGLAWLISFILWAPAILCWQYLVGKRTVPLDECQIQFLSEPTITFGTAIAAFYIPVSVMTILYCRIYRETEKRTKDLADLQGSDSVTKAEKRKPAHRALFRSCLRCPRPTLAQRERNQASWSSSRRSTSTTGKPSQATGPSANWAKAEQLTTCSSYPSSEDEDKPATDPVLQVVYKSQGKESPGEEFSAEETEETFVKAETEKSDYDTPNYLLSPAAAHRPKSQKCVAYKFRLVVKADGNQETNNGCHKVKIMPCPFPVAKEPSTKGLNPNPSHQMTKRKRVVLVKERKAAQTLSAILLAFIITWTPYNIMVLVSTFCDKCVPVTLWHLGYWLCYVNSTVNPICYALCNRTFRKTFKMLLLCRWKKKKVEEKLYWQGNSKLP

[11] = biological target: T5, rM4 (Rattus norvegicus, UniProt P08485); experiment: activity at rat mAChRs, rM4; type: cell-based
T5 sequence (P08485 1-478): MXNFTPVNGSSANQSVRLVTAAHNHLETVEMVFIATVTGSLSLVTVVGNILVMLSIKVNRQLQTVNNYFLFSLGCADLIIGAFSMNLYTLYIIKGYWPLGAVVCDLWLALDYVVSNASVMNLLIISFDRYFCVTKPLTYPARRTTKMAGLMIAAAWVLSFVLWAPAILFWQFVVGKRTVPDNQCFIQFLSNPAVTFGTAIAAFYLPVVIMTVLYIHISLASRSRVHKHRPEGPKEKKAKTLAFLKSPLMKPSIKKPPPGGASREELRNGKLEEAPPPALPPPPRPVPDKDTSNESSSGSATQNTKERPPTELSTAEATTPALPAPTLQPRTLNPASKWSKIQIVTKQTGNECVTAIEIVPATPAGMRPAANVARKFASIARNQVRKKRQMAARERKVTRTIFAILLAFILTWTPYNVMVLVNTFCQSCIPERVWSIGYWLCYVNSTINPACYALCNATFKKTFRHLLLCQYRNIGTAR

- hM4 % ACh Min ±SEM [1]: 56 % ACh Min
SMILES: C[C@H]1COCCN1c1ccc(N2CCN(S(=O)(=O)c3ccccc3Cl)CC2)nn1 [Compound 14a]

- hM4 % ACh Min ±SEM [1]: 63 % ACh Min
SMILES: C[C@H]1COCCN1c1ccc(N2CCN(S(=O)(=O)c3ccc4c(c3)OCO4)CC2)nn1 [Compound 14b]

- hM4 % ACh Min ±SEM [1]: 66 % ACh Min
SMILES: Cc1noc(C)c1S(=O)(=O)N1CCN(c2ccc(N3CCOC[C@@H]3C)nn2)CC1 [Compound 14c]

- fold loss in hM4 inhibitory activity relative to 6a [1]: 5- to 6 fold
SMILES: O=S(=O)(c1ccccc1Cl)N1CCN(c2ccc(N3CCCCC3)nn2)CC1 [Compound 14g]

- mode of antagonism at human M1 [7]: potent full antagonist
- mode of antagonism at human M2 [8]: potent full antagonist
- mode of antagonism at human M3 [9]: weak, partial antagonism
- mode of antagonism at human M5 [10]: weak, partial antagonism
- rM4 % ACh Min [11]: 32±1 % ACh Min
- IC50 ([11]; rM4 pIC50): 372 nM
- predicted hepatic clearance (CLhep), rat [2]: 66.6 mL/min/kg
- predicted hepatic clearance (CLhep), human [3]: 20 mL/min/kg
SMILES: Cc1noc(C)c1S(=O)(=O)N1CCN(c2ccc(N3CCCC(C)(C)C3)nn2)CC1 [Compound 14n, 4-[4-[6-(3,3-dimethyl-1-piperidyl)pyridazin-3-yl]piperazin-1-yl]sulfonyl-3,5-dimethyl-isoxazole]

- hM4 % ACh Min ±SEM [1]: 51 % ACh Min
SMILES: O=C1CCCCN1c1ccc(N2CCN(S(=O)(=O)c3ccccc3Cl)CC2)nn1 [Compound 14o]

The next lines start with the compound.

SMILES: C[C@H]1CCCCN1c1ccc(N2CCN(S(=O)(=O)c3ccccc3Cl)CC2)nn1 [Compound 6a]
- M4-preferring functional selectivity over other mAChRs ([1]; hM4 versus hM1, hM2, hM3, hM5): 2.7- to 16 fold
- predicted hepatic clearance (CLhep), rat [2]: > 60 mL/min/kg
- predicted hepatic clearance (CLhep), human [3]: > 20 mL/min/kg
- parent remaining, rat microsomes [4]: very little parent remained
- major peak (UV and extracted ion chromatograms), rat microsomes ([4]; oxidative metabolism of the piperidine moiety): metabolite F
- NADPH-independent metabolism, rat microsomes ([4]; presence and absence of NADPH): no NADPH-independent metabolism
- number of NADPH-dependent metabolites formed, human microsomes [5]: 8
- parent remaining, human microsomes [5]: parent remained the major species
- NADPH-independent metabolism, human microsomes ([5]; presence and absence of NADPH): no NADPH-independent metabolism
- plasma protein binding [6]: high plasma protein binding

SMILES: C[C@H]1CCCCN1c1ccc(N2CCN(S(=O)(=O)c3ccccc3)CC2)nn1 [Compound 9c]
- hM4 activity [1]: weak

SMILES: COc1ccccc1S(=O)(=O)N1CCN(c2ccc(N3CCCC[C@@H]3C)nn2)CC1 [Compound 9d]
- hM4 activity [1]: weak

SMILES: C[C@H]1CCCCN1c1ccc(N2CCN(S(=O)(=O)c3ccccc3C(F)(F)F)CC2)nn1 [Compound 9e]
- hM4 activity [1]: essentially equipotent to 6a

SMILES: C[C@H]1CCCCN1c1ccc(N2CCN(S(=O)(=O)c3ccc4c(c3)OCO4)CC2)nn1 [Compound 9i]
- fold more potent at hM4 than 3,4-dimethoxy analog 9j ([1]; 9i versus 9j): 10 fold
